The source made the active and inactive calls. The calls are words filed in the database; no cut-off is given here.
Legend:
Rattus norvegicus [1] = experiment: Evaluated in vivo for antiinflammatory activity at 30 mg/kg oral dose in the carrageenan-induced rat paw edema (male Wistar rat); type: functional
[2] = biological target: T1, Prostaglandin G/H synthase 1 (Ovis aries) (UniProt P05979); experiment: In vitro inhibition of Prostaglandin G/H synthase 1 (from ram seminal vesicles) at a concentration of […]
T1 sequence (whole entry): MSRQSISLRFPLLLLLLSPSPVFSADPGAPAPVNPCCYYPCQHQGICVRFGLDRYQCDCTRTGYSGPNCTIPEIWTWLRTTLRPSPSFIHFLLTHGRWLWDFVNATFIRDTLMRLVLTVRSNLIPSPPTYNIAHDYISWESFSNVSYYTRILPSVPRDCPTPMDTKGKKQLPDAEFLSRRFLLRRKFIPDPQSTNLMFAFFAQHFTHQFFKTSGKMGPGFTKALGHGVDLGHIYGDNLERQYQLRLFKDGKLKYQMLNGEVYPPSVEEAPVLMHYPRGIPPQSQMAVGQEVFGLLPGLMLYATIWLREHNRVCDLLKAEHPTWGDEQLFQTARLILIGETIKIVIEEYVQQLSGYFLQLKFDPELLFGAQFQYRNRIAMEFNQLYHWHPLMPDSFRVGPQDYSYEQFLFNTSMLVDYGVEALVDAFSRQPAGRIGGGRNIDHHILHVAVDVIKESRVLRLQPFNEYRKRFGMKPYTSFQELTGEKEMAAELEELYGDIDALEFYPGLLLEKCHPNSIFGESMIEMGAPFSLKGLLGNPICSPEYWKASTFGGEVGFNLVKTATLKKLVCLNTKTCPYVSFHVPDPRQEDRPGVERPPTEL

Rattus norvegicus [3] = experiment: Evaluated in vivo for oral dose required to produce antiinflammatory activity in the rat paw edema assay (male Wistar rat); type: functional
[4] = Pharmacokinetic parameter Tmax was determined in male Wistar rat after 100 mg/kg oral dose of the compound; type: ADME, organism-based; parameters: dose 100 mg/kg, route oral; details: in vivo
[5] = Pharmacokinetic parameter AUC(area under curve) was determined in male Wistar rat after 100 mg/kg oral dose of the compound; type: ADME, organism-based; parameters: dose 100 mg/kg, route oral; details: in vivo
[6] = Pharmacokinetic parameter Cmax was determined in male Wistar rat after 100 mg/kg oral dose of the compound; type: ADME, organism-based; parameters: dose 100 mg/kg, route oral; details: in vivo
Rattus norvegicus [7] = experiment: Evaluated in vivo for antiinflammatory activity at 30 mg/kg oral dose in the carrageenan-induced rat paw edema (male Wistar rat); Not active; type: functional, organism-based; parameters: dose 30 mg/kg
[8] = biological target: T2, Prostaglandin G/H synthase 1 (Ovis aries, UniProt P05979)
T2 sequence (P05979 whole entry): T1 sequence (whole entry)
Description: In vitro inhibition against Prostaglandin G/H synthase 1 from ram seminal vesicles

[9] = Partition coefficient (logP); type: physicochemical; details: octanol/water

SMILES | inhibition in vivo at 30 mg/kg (Rattus norvegicus [1]) [%] | inhibition [2] [%] | other results
CCC(=O)NS(=O)(=O)c1ccc(-n2nc(C(F)(F)F)cc2-c2ccc(F)cc2)c(F)c1 | 38 | 0 | –
CCCC(=O)[N-]S(=O)(=O)c1ccc(-n2nc(C(F)(F)F)cc2-c2ccc(C)cc2)cc1.[Na+] | 63 | 2 | ED50 (Rattus norvegicus [3]): 6.69 mg/kg
CS(=O)(=O)c1ccc(C2=C(c3ccccc3)C(=O)OC2)cc1 [ROFECOXIB] | 37 | – | Tmax [4]: 3 h; AUC [5]: 57.9 µg·h/mL; Cmax [6]: 5.61 µg/mL
CCCC(=O)NS(=O)(=O)c1ccc(-n2nc(C(F)(F)F)cc2-c2ccc(OC)cc2)c(F)c1 | 42 | 32 | –
CCCC(=O)NS(=O)(=O)c1ccc(-n2nc(C(F)(F)F)cc2-c2ccc(SC)cc2)c(F)c1 | 40 | 34 | –
COc1ccc(-c2cc(C(F)(F)F)nn2-c2ccc(S(N)(=O)=O)c(C)c2)cc1 | – | 75 | –
COc1ccc(-c2cc(C(F)(F)F)nn2-c2ccc(S(=O)(=O)NC(=O)C(C)(C)C)cc2F)cc1 | – | 16 | inhibition (Rattus norvegicus [7]): inactive
CCC(=O)[N-]S(=O)(=O)c1ccc(-n2nc(C(F)(F)F)cc2-c2ccc(OC)cc2)c(F)c1.[Na+] | 78 | 18 | ED50 (Rattus norvegicus [3]): 6 mg/kg
COc1ccc(-c2cc(C(F)(F)F)nn2-c2ccc(S(N)(=O)=O)c(F)c2)cc1 | 52 | 0 | IC50 [8]: > 170 µM; ED30 (Rattus norvegicus [3]): 1 mg/kg; ED50 (Rattus norvegicus [3]): 12.7 mg/kg
Cc1ccc(-c2cc(C(F)(F)F)nn2-c2ccc(S(N)(=O)=O)cc2)cc1 [CELECOXIB] | 49 | – | Tmax [4]: 3.25 h; ED50 (Rattus norvegicus [3]): 7.9 mg/kg; AUC [5]: 23.2 µg·h/mL; logP [9]: 3.01; Cmax [6]: 2.47 µg/mL
CCC(=O)NS(=O)(=O)c1ccc(-n2nc(C(F)(F)F)cc2-c2ccc(C)cc2)cc1 | 30 | 0 | –
CCCC(=O)NS(=O)(=O)c1ccc(-n2nc(C(F)(F)F)cc2-c2ccc(F)cc2)c(F)c1 | 22 | 0 | –
CC(=O)NS(=O)(=O)c1ccc(-n2nc(C(F)(F)F)cc2-c2ccc(C)cc2)cc1 | 27 | 10 | –
CCC(=O)NS(=O)(=O)c1ccc(-n2nc(C(F)(F)F)cc2-c2ccc(SC)cc2)c(F)c1 | 37 | – | –
COc1ccc2c(c1)c(CC(=O)O)c(C)n2C(=O)c1ccc(Cl)cc1 | – | 100 | –
CC(=O)NS(=O)(=O)c1ccc(-n2nc(C(F)(F)F)cc2-c2ccc(F)cc2)c(F)c1 | 44 | 26 | –
COc1ccc(-c2cc(C(F)(F)F)nn2-c2ccc(S(N)(=O)=O)cc2F)cc1 | 26 | 13 | IC50 [8]: > 30 µM; Tmax [4]: 7.5 h; AUC [5]: 46.5 µg·h/mL; logP [9]: 3.14; Cmax [6]: 3.3 µg/mL
CCC(=O)[N-]S(=O)(=O)c1ccc(-c2c(-c3ccccc3)noc2C)cc1.[Na+] [PARECOXIB SODIUM] | – | – | ED50 (Rattus norvegicus [3]): 5 mg/kg
CSc1ccc(-c2cc(C(F)(F)F)nn2-c2ccc(S(N)(=O)=O)cc2F)cc1 | 33 | 29 | IC50 [8]: 24.3 µM; Tmax [4]: 1.26 h; AUC [5]: 6.65 µg·h/mL; logP [9]: 3.81; Cmax [6]: 3.21 µg/mL

Reference: ChEMBL document CHEMBL1145080, “Synthesis and cyclooxygenase-2 inhibiting property of 1,5-diarylpyrazoles with substituted benzenesulfonamide moiety as pharmacophore: Preparation of sodium salt for injectable formulation” (J Med Chem, 2003)
